Reference: patent US6492356B1, “Acylguanidine derivatives as inhibitors of bone resorption and as vitronectin receptor antagonists” (Aventis Pharma Deutschland GmbH, priority 1997, dated 2002)

Molecular target: T1, vitronectin receptor αvβ3 (Homo sapiens, UniProt P05106+P06756)
T1 construct: expressed in transfected cells
Test: Inhibition of binding of 293 cells to human vitronectin (Vn/293 cell test)
Assay type: cell-based
Settings: 293 cells cotransfected with αv and β3 subunits; plate coated with human vitronectin; 90 min at 37° C.
Description: Test for the measurement of the inhibition of binding of 293 cells to human vitronectin (Vn/293 cell test)
1. Purification of Human Vitronectin
Human vitronectin is isolated from human plasma and purified by affinity chromatography according to the method of Yatohyo et al., Cell Structure and Function, 1988, 23, 281-292.
293 cells, a human embryonic kidney cell line, which are cotransfected with DNA sequences for the αv and β3 subunits of the vitronectin receptor αvβ3 , are selected for a high rate of expression (>500,000 αvβ3 receptors/cell) according to the FACS method. The selected cells are cultured and sorted again by means of FACS in order to obtain a stable cell line (15 D) with expression rates >1,000,000 copies of αvβ3 per cell.
A Linbro 96-well tissue culture plate with a flat bottom is coated overnight at 4° C. with human vitronectin (0.01 mg/ml, 0.05 ml/well) in phosphate-buffered saline solution (PBS) and then blocked with 0.5% strength BSA (bovine serum albumin). Solutions of the test substances from 10^−10 mol/l to 2×10^−3 mol/l in glucose-containing DMEM medium are prepared and 0.05 ml/well of the solution are added to the plate in each case. The cells which express high levels of αvβ3 (for example 15 D) are suspended in glucose-containing DMEM medium and the suspension is adjusted to a content of 25,000 cells/0.05 ml of medium. 0.05 ml of this cell suspension is added to each well and the plate is incubated at 37° C. for 90 min. The plate is washed three times with warm PBS in order to remove unbound cells. The bound cells are lyzed in citrate buffer (25 mM, pH 5.0) which contains 0.25% Triton X-100. The hexoseamidase substrate p-nitrophenyl-N-acetyl-β-D-glucosaminide is then added and the plate is incubated at 37° C. for 90 min. The reaction is stopped with a glycine (50 mM)/EDTA (5 mM) buffer (pH 10.4) and the absorption of each well is measured at 405-650 nm. The data are analyzed according to standard processes.

T1 sequence (P06756 31-889 limits assumed): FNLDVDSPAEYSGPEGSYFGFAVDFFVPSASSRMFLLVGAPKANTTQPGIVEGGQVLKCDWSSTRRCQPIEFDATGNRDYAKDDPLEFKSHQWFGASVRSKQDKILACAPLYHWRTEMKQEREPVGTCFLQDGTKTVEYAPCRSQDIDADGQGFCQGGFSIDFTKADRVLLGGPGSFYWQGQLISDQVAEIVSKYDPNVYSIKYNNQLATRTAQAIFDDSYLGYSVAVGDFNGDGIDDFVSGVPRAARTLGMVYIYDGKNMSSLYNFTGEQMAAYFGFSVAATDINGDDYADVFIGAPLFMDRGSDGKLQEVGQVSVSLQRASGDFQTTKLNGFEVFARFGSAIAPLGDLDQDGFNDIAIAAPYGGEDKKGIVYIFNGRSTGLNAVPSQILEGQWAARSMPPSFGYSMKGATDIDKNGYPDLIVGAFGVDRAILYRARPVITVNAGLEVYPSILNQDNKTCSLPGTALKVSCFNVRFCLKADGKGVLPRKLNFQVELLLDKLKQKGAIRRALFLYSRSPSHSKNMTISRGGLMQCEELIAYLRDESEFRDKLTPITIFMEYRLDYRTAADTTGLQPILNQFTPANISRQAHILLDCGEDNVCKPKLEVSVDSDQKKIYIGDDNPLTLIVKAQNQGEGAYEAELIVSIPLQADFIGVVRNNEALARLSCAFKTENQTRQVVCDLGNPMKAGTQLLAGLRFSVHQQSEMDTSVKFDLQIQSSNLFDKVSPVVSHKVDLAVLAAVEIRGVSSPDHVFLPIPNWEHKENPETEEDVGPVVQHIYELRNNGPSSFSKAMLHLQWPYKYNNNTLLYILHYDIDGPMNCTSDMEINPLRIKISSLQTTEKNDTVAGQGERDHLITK
T1 sequence (P06756 891-1048 limits assumed): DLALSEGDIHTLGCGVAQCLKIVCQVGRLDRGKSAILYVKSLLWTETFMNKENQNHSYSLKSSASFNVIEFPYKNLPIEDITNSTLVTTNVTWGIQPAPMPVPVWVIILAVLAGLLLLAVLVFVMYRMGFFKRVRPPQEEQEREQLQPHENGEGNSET
T1 sequence (P05106 27-788): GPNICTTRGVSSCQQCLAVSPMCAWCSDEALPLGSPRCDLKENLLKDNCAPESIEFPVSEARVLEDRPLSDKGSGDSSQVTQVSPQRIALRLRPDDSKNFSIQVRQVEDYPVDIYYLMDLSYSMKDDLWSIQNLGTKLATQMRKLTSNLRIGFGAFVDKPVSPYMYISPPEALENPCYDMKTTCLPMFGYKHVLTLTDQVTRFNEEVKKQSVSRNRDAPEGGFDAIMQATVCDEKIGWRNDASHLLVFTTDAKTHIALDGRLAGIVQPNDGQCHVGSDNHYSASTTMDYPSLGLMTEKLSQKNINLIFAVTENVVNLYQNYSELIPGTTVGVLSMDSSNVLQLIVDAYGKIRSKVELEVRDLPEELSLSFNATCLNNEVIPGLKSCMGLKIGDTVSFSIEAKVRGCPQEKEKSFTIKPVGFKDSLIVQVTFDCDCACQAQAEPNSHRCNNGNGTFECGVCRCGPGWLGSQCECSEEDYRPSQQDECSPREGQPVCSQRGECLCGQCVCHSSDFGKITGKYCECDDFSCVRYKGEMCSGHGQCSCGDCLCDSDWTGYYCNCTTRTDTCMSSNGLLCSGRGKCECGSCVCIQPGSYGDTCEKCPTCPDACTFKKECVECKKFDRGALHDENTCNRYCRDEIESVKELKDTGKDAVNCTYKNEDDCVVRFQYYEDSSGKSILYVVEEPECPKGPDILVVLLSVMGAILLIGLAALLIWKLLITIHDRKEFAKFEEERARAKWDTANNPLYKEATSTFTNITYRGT

Row | IC50 [nM] | SMILES
1 | 28 | O=C(CCCOc1ccc(C[C@H](NC(=O)OCc2ccccc2)C(=O)O)cc1)NC1=NCCCN1 [Example 1, (2S)-2-Benzyloxycarbonylamino-3-(4-(3-(1,4,5,6-tetrahydropyrimidin-2-ylcarbamoyl)propyloxy)phenyl)propionic Acid]
2 | 17 | O=C(CCc1ccc(C(=O)NC[C@H](NC(=O)OCc2ccccc2)C(=O)O)cc1)NC1=NCCCN1 [Example 2, (2S)-2-Benzyloxycarbonylamino-3-(4-(2-(1,4,5,6-tetrahydropyrimidin-2-ylcarbamoyl)ethyl)benzoylamino)propionic Acid]
3 | 1350 | O=C(COc1ccc(C(=O)NC[C@H](NC(=O)OCc2ccccc2)C(=O)O)cc1)NC1=NCCCN1 [Example 3, (2S )-2-Benzyloxycarbonylamino-3-(4-((1,4,5,6-tetrahydropyrimidin-2-ylcarbamoyl)methyloxy)benzoylamino)propionic Acid]
4 | 32 | O=C(CCCOc1ccc(C[C@H](NC(=O)OCc2ccccc2)C(=O)O)cc1)NC1=NCCN1 [Example 6, (2S)-2-Benzyloxycarbonylamino-3-(4-(3-(4,5-dihydro-1H-imidazol-2-ylcarbamoyl)propyloxy)phenyl)propionic Acid]
